PMC5690597, “Suppression and resolution of autoimmune arthritis by rhesus θ-defensin-1, an immunomodulatory macrocyclic peptide” (PLoS ONE, 2017)

Test system: DA/OlaHsd rats with pristane-induced arthritis
Test: Pristane-induced arthritis (PIA), established disease (AS ≥ 3)
Assay type: in vivo, rat
Conditions: for effect on arthritis progression by day 3 of treatment compared to vehicle controls: MTX 0.25 mg/kg i.p. q3d, etanercept 0.4 mg/kg s.c. q3d, P < 0.05; for rate of complete disease resolution on day 11, comparison with RA drugs: RTD-1 s.c. (4 of 16), MTX 0.25 mg/kg i.p. q3d (1 of 22), etanercept 0.4 mg/kg s.c. q3d (0 of 21), saline 0 of 19, 2 independent experiments
Method: Female DA/OlaHsd (D blood group allele and Agouti, also known as Dark Agouti), rats were obtained from Harlan Laboratories (Indianapolis, IN). Animals were allowed to acclimate for 48–72 hours prior to experimental use. Animals were fed standard chow ad lib during a 12-hour day/night cycle. PIA was induced in 5–7 week old animals (90–100 gm) by intradermal injection of 250 μl pristane (Sigma) divided into 3–5 sites at the base of the tail. Animals were monitored daily and disease severity of each limb was scored 0–4 using the method of Brand et al.. The severity scores for all limbs of individual animals were totaled to give an individual’s arthritis severity score (AS) ranging from zero for normal animals to maximum disease score of sixteen. […] In three separate trials, treatment was also blinded to scorers. […] Treatment with saline (vehicle), RTD-1, or anti-arthritic agents was randomized and initiated when an animal first presented with an AS of 3 or more. RTD-1 was administered subcutaneously with doses ranging from 0.2 to 5.0 mg/kg in an injection volume of 0.5 ml at intervals ranging from once a day (qd) to once every seven days (q7d). MTX was administered at 0.25 mg/kg by intraperitoneal injection q3d. Etanercept was administered at 0.4 mg/kg by subcutaneous injection q3d.

Compound	effect on arthritis progression by day 3 of treatment compared to vehicle controls	rate of complete disease resolution on day 11, comparison with RA drugs [%]
CN(Cc1cnc2nc(N)nc(N)c2n1)c1ccc(C(=O)N[C@@H](CCC(=O)O)C(=O)O)cc1 [MTX, Methotrexate, reference compound]	limited the progression of arthritis	4.5
Etanercept [reference compound]	limited the progression of arthritis	0
